US11447638B2, “Acetalanthraquinone derivatives useful for cellular staining” (BIOSTATUS LIMITED, priority 2016, dated 2022)

Key:
[1] = test system: fixed human osteosarcoma U-2 OS cells; experiment: Labelling of fixed cells, wide-field fluorescence microscopy; type: cell-based; conditions: 20 μM, 1 h exposure in PBS, FIG. 2
How it was run: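 U-2 OS cells fixed 24 or 48 h after seeding with 4% paraformaldehyde for 30 min, then labelled with AAQ agents at 20 μM (DRAQ5 20 μM as reference) in PBS at 37° C in the dark. Imaged without washing after 1 h by wide-field fluorescence, ×10 0.3 NA objective, for red signal and cellular location.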

[2] = test system: A549 live cells; experiment: Loading of A549 live cells, wide-field fluorescence microscopy; type: cell-based, human; conditions: 20 μM, 30 min incubation, FIG. 3
How it was run: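 Live A549 cells incubated 30 min at 37° C. in the dark with compound at 20 μM (DRAQ5 at 20 μM as reference), imaged unwashed. Uptake and localisation of red fluorescence assessed by low-resolution wide-field fluorescence microscopy, ×10 0.3 NA objective, 30 ms exposure.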

[3] = test system: A549 cells; experiment: Constant exposure to probes, time-lapse and flow cytometry after 72 h; type: cell-based, human; conditions: within 24 hours
Method: Timelapse imaging, in accordance with Errington R J et al, Time-lapse microscopy approaches to track cell cycle and lineage progression at the single-cell level, Curr Protoc Cytom. 2013 April; Chapter 12: Unit 12.4, was carried out in relation to cells with exposure to probe compounds.
In this regard, A549 cells were seeded in a 24 well coverslip bottomed-plate, cultured overnight in McCoys media for 24 or 48 hours. The plates were placed onto an inverted automated microscope, with the capacity for acquiring an image sequence of different wells (therefore exposure to different agent labelling). An Axiovert 100 microscope (Carl Zeiss, Welwyn Garden City, UK) was fitted with an incubator for 37° C./5% CO2 maintenance (Solent Scientific, Portsmouth, UK), and an ORCA-ER CCD camera (Hamamatsu, Reading, UK). Illumination was controlled by a shutter in front of the transmission lamp, and an x, y positioning stage with separate z-focus (Prior Scientific, Cambridge, UK) controlled multi-field acquisition. Image capture was controlled using Metamorph software.
Cells were exposed to a constant dose (0-5 μM) or a pulsed dose of 0 or 20 μM agent for 15 minutes followed by washout with warmed full media. […]
A549 cell lines were monitored using time-lapse collection and lineage progression, in constant exposure to compounds of the invention. The effects on cells were also determined. […]

[4] = test system: A549; experiment: MTT cellular viability (growth inhibition) assay, A549; type: cell-based; conditions: Homo sapiens, 0.25-100 μM, 72 h, Table 3
How it was run: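 Cells seeded at 1×10^4 cells/mL in R10, allowed to adhere overnight at 37 °C, 5% CO2. Compounds tested at 0.25–100 μM for 72 h; MTT read-out gave growth-inhibition IC50.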

Structure (SMILES) | staining pattern in fixed cells [1] | fluorescence brightness / background in live cells [2] | localisation of probe during constant exposure [3] | IC50 [4] [µM] | fluorescence brightness / background in fixed cells [1]
COC(CNC(=O)CCNc1ccc(NCCN(C)C)c2c1C(=O)c1ccccc1C2=O)OC [BST-109, N-(2,2-Dimethoxyethyl)-3-(4-(2-(dimethylamino)ethylamino)-9,10-dioxo-9,10-dihydroanthracen-1-ylamino)propanamide] | heterogeneity in cytoplasmic staining and positive spots in the nuclei | very bright cellular fluorescence | predominantly in a membrane compartment of the cytoplasm | 22.5 | –
COC(CC(=O)NCCNc1ccc(NCCN(C)C)c2c1C(=O)c1ccccc1C2=O)OC [BST-110, N-(2-(4-(2-(dimethylamino)ethylamino)-9,10-dioxo-9,10-dihydroanthracen-1-ylamino)ethyl)-3,3-dimethoxypropanamide] | cytoplasmic staining and heterogeneity on labelling of mitotic figures | very bright cellular fluorescence | predominantly in a membrane compartment of the cytoplasm | 22.3 | very high background fluorescence
